Columns and labels:
mice = assay: Forced swimming test (FST), immobility time; format: in vivo; conditions: intraperitoneal, each sample 20 mg/kg, 30 minutes before test, 4-minute period, FIG. 5
Protocol: In order to verify whether the fractions of the Pleurotus eryngii extract according to the present invention actually have antidepressant efficacy, a forced swimming test was performed using experimental animals. The antidepressant efficacy was determined by measuring the immobility time during a forced swimming test, and the less the immobility time, the greater the antidepressant efficacy. To this end, mice were intraperitoneally injected with each of the ethanol extract of Pleurotus eryngii according to the present invention and the primary fraction and the secondary fraction of the ethanol extract, after which the immobility time during a forced swimming test was measured. Each sample was injected in an amount of 20 mg/kg into experimental mice. Also, a Prozac-administered group was used as a positive control. Four mice (n=4) were intraperitoneally injected with each sample and then allowed to stand for 30 minutes, after which the mice were submerged in water for 6 minutes and then washed for a while, water in the water tank was exchanged, and the mice were placed again in the water tank for 4 minutes to conduct this experiment. Statistical processing was performed by measuring the immobility time during the 4-minute experimental period.

[1] = tested on: serotonin receptor-mediated signaling in AGS cell line; assay: Serotonin receptor-mediated signaling in AGS cell line by Western blotting (pErk, pJNK); format: cell-based, human; conditions: FIG. 4
Protocol: Whether the fractions of the Pleurotus eryngii extract according to the present invention were involved in serotonin receptor-mediated signaling by treating an AGS cell line known to overexpress serotonin receptors with the fractions of the Pleurotus eryngii extract according to the present invention was evaluated using Western blotting. Here, an anti-pERK antibody, anti-Erk antibody, anti-pJNK antibody, anti-JNK antibody, and anti-α Tubulin antibody were used for western blotting.

For `CNCCC(Oc1ccc(C(F)(F)F)cc1)c1ccccc1` (stereo not drawn) [Prozac], the “reduction in immobility time compared to negative control” value (mice) was 24%.

In the case of `NCCc1c[nH]c2ccc(O)cc12` [serotonin], the “expression of phosphorylated pErk” value [1] is reported as “increased” and the “expression of phosphorylated pJNK” value [1] is reported as “increased”.
